Reference: patent US10894772B2, “Flavor modulator having pyridine derivative or salt thereof as active ingredient” (T. HASEGAWA CO., LTD., priority 2015, dated 2021)

Key:
Assay type in all cases: in vivo
panelists [1] = test: Flavor evaluation of ethanol solution (bottle mouth and flavor paper); conditions: 0.1% ethanol solution, average evaluation of 5 panelists
Description: (§1) A 1% ethanol solution of the invention products 1 to 6 prepared in Examples 1 to 6 was prepared as an evaluation solution. The evaluation solution was prepared in a sample bottle. Regarding the flavor of the sample smelling from the bottle mouth and the flavor of a flavor paper prepared by infiltrating the evaluation solution into a paper, well-trained 5 panelists tested the solution for flavor evaluation.
as §1, with “0.1%” for “1%”, “product 101 (2-(3-benzyloxypropyl)pyridine)” for “products 1 to 6”, “Example 101” for “Examples 1 to 6”, “evaluation. A typical evaluation of the product is as follows.” for “evaluation.”

panelists [2] = test: Confirmation of umami and saltiness enhancement in edible salt and MSG solution; conditions: 10 ppb added to aqueous 0.3 mass % edible salt and 0.03 mass % sodium glutamate (MSG); 5 panelists
Description: Well-trained 5 panelists tasted an aqueous solution of 0.3 mass % edible salt and 0.03 mass % sodium glutamate (MSG), and aqueous solutions prepared by adding to the aqueous solution, 10 ppb of any of the invention products 1 to 6, for organoleptic evaluation in point of umami and saltiness enhancement.
(§2) Well-trained 5 panelists tasted an aqueous solution of 0.3 mass % edible salt and 0.03 mass % sodium glutamate (MSG), and an aqueous solution prepared by adding to the aqueous solution, 10 ppb of 2-(3-benzyloxypropyl)pyridine (invention product 101), for organoleptic evaluation in point of umami and saltiness enhancement.
as §2, with “ppb, as 2-(3-benzyloxypropyl)pyridine therein,” for “ppb”, “the invention” for “2-(3-benzyloxypropyl)pyridine (invention”, “201 or the reference product 202,” for “101),”

panelists [3] = test: Confirmation of umami enhancing effect in sodium inosinate solution; conditions: 10 ppb added to aqueous 0.1 mass % sodium inosinate solution; 5 panelists
Description: Well-trained 5 panelists tasted an aqueous solution of 0.1 mass % sodium inosinate (5′-IMP⋅2Na), and aqueous solutions prepared by adding to the aqueous 0.1 mass % sodium inosinate solution, 10 ppb of any of the invention products 1 to 6, for organoleptic evaluation in point of umami.
Well-trained 5 panelists tasted an aqueous solution of 0.1 mass % sodium inosinate (5′-IMP⋅2Na), and an aqueous solution prepared by adding thereto 10 ppb of 2-(3-benzyloxypropyl)pyridine (invention product 101), for organoleptic evaluation in point of umami.
Well-trained 5 panelists tasted (1) 0.1 mass % sodium inosinate (5′-IMP⋅2Na) and (2) an aqueous solution of 0.1 mass % sodium inosinate and 5 ppb, as 2-(3-benzyloxypropyl)pyridine therein, of the invention product 201, for organoleptic evaluation in point of umami.

panelists [4] = test: Confirmation of sweetness enhancing effect in sucrose solution; conditions: 5 ppb added to aqueous 3 mass % sucrose solution; 5 panelists
Description: Well-trained 5 panelists tasted an aqueous 3 mass % sucrose solution, and aqueous solutions prepared by adding to the aqueous 3 mass % sucrose solution, 5 ppb of any of the invention products 1 to 6, for organoleptic evaluation in point of sweetness.
Well-trained 5 panelists tasted an aqueous 3 mass % sucrose solution, and an aqueous solution prepared by adding thereto 5 ppb of 2-(3-benzyloxypropyl)pyridine (invention product 101), for organoleptic evaluation in point of sweetness.
Well-trained 5 panelists tasted (1) an aqueous 3 mass % sucrose solution and (2) an aqueous solution prepared by adding […], as 2-(3-benzyloxypropyl)pyridine therein, of the invention product 201 to the aqueous 3 mass % sucrose solution, for organoleptic evaluation in point of sweetness.

panelists [5] = test: Addition to soup broth for udon noodle; conditions: 0.05 ppm added to commercial soup broth for udon noodle; 100 ml diluted with 200 ml hot water; 5 panelists
Description: (§3) 0.05 ppm of any of the invention products 1 to 6 was added to commercially-available soup broth for udon noodle (tripe strength). 200 ml of hot water was added to 100 ml of each of the added soup broth and the non-added soup broth, and well-trained 5 panelists tasted them for organoleptic evaluation in point of umami.
as §3, with “2-(3-benzyloxypropyl)pyridine (invention product 101)” for “any of the invention products 1 to 6”
as §3, with “as 2-(3-benzyloxypropyl)pyridine therein” for “of any”, “product 201” for “products 1 to 6”

panelists [6] = test: Confirmation of umami in water (organoleptic evaluation of taste and flavor in words); conditions: for Organoleptic Evaluation Taste / Organoleptic Evaluation Flavor: average of 5 panelists
Description: A solution was prepared by dissolving 2-(3-benzyloxypropyl)pyridine (invention product 101) in water to have a concentration shown in Table 15. As a comparative product, a solution was prepared by dissolving 2-(2-benzyloxyethyl)pyridine (comparative product 1 prepared in Comparative Example 1) to have the same concentration. Well-trained 5 panelists tasted the solutions and non-added water for organoleptic evaluation of taste and flavor.
The invention product 101 and the comparative product 1 were individually diluted with ethanol to have a proper concentration, and then further diluted with water to prepare an aqueous solution of 2-(3-benzyloxypropyl)pyridine (invention product 101 produced in Example 101) and that of 2-(2-benzyloxyethyl)pyridine (comparative product synthesized in Comparative Example 1) each having a concentration shown in the following Table 21. Well-trained panelists tasted the solution having a different concentration and non-added water for organoleptic evaluation in point of taste and flavor. […]

panelists [7] = test: Confirmation of umami imparting and saltiness enhancing effect in 0.3 mass % sodium chloride (evaluation in words)
Description: An aqueous 0.3 mass % sodium chloride solution (control), and solutions of 2-(3-benzyloxypropyl)pyridine dissolved in a 0.3 mass % sodium chloride solution to have the concentration shown in Table 17 were prepared. As comparative products, an aqueous 0.3 mass % sodium chloride solution (control), and a solution of a comparative product, 2-(2-benzyloxyethyl)pyridine dissolved in a 0.3 mass % sodium chloride solution to have the same concentration were prepared. Well-trained 5 panelists tasted the solutions for organoleptic evaluation of umami impartment and saltiness enhancement.
An aqueous 0.3 mass % sodium chloride solution (control), and solutions of the invention product 201 or the reference product 202 dissolved in a 0.3 mass % sodium chloride solution to have the concentration as 2-(3-benzyloxypropyl)pyridine therein shown in the following Table 23 were prepared. Well-trained 5 panelists tasted the solutions for organoleptic evaluation of umami impartment and saltiness enhancement.

panelists [8] = test: Confirmation of umami enhancing effect: comparison with edible salt and 0.05 mass % MSG solution; conditions: 10 ppb with 0.3 mass % edible salt in water; 5 panelists; Example 110
Description: Well-trained 5 panelists tasted an aqueous solution of 0.3 mass % edible salt and 0.05 mass % sodium glutamate (MSG), and an aqueous solution of 0.3 mass edible salt and 10 ppb of 2-(3-benzyloxypropyl)pyridine (invention product 101), for organoleptic evaluation of umami.
Well-trained 5 panelists tasted (1) an aqueous solution of 0.3 mass % edible salt and 0.05 mass % sodium glutamate (MSG), and (2) and an aqueous solution of 0.3 mass % edible salt and […], as 2-(3-benzyloxypropyl)pyridine therein, of the invention product 201, for organoleptic evaluation in point of umami.

[9] = aqueous solution, Reference Example 201
[10] = in 0.3 mass % sodium chloride solution, Example 108

SMILES: c1ccc(COCCCc2ccccn2)cc1 [invention product 101, 2-(3-benzyloxypropyl)pyridine]
- Flavor Evaluation (panelists [1]): somewhat herbal, green and nutty flavor of natural impression
- umami and saltiness compared with the non-added solution (panelists [2]): stronger umami and saltiness
- umami compared with the non-added solution (panelists [3]): stronger umami
- sweetness compared with the non-added solution (panelists [4]): stronger sweetness
- umami, saltiness and sweetness compared with non-added soup broth (panelists [5]): stronger umami, saltiness and sweetness
- Organoleptic Evaluation Taste (panelists [6]; 0.1 ppm dissolved in water, Example 107): Weakly umami.
- Organoleptic Evaluation Taste (panelists [6]; 0.1 ppm, diluted with ethanol, then with water, Reference Example 201): Weakly umami.
- Organoleptic Evaluation Flavor (panelists [6]; 2 ppb dissolved in water, Example 107): Nothing at all.
- Organoleptic Evaluation Flavor (panelists [6]; 2 ppb, diluted with ethanol, then with water, Reference Example 201): Nothing at all.
- Organoleptic Evaluation Taste (panelists [6]; 10 ppb dissolved in water, Example 107): Slightly umami
- Organoleptic Evaluation Taste (panelists [6]; 10 ppb, diluted with ethanol, then with water, Reference Example 201): Slightly umami.
- Organoleptic Evaluation Taste (panelists [6]; 20 ppm dissolved in water, Example 107): Strongly umami.
- Organoleptic Evaluation Taste (panelists [6]; 20 ppm, diluted with ethanol, then with water, Reference Example 201): Strongly umami.
- concentration to provide the same umami intensity relative to that of 2-(2-benzyloxyethyl)pyridine (panelists [6]; [9]): about 1/10
- umami imparting effect relative to 2-(2-benzyloxyethyl)pyridine (panelists [6]; [9]): ~10 times
- concentration to provide the same umami intensity relative to that of 2-(2-benzyloxyethyl)pyridine (panelists [6]; in water, Example 107): about 1/10
- Organoleptic Evaluation (umami impartment and saltiness enhancement) (panelists [7]; 1 ppb in 0.3 mass % sodium chloride solution, average of 5 panelists, Example 108): Slightly umami as compared with control.
- concentration providing umami in 0.3 mass % sodium chloride solution relative to that of the solution in water (panelists [7]; Example 108): about 1/10
- concentration providing umami in 0.3 mass % sodium chloride solution relative to that of the solution in water (panelists [7]; Example 203): about 1/10
- concentration to realize the same degree of umami intensity relative to that of 2-(2-benzyloxyethyl)pyridine (panelists [7]; [10]): about 1/10
- umami imparting effect relative to 2-(2-benzyloxyethyl)pyridine (comparative product 1) (panelists [7]; [10]): about 10 times
- umami compared with aqueous 0.3 mass % edible salt and 0.05 mass % sodium glutamate (MSG) (panelists [8]): umami of almost the same level
